Source: PMC9067983, “Identification of highly selective type II kinase inhibitors with chiral peptidomimetic tails” (Journal of Enzyme Inhibition and Medicinal Chemistry, 2022)
Where a SMILES comes first, the peptide text is derived from it. [ ]: non-standard residue; d: D form. The star is where a group is joined. X1 = Cc1ccc(Nc2ncc3c(n2)N(C)C(=O)N(c2cc(C(=O)*)ccc2C)C3)cn1; Aib = CC(C)(N)C(=O)O

How the values were obtained:
Test in all cases: kinase selectivity profiling
Type in all cases: biochemical
Conditions in all cases: 10µM ATP, read-out: % inhibition (relative to DMSO)
BRAF = molecular target: T1, BRAF (Homo sapiens, UniProt P15056)
T1 construct: purchased Reaction Biology Corp
Procedure: (§1) Full panel kinase profiling and kinase IC50 measurement were performed by using Reaction Biology Corp. (San Diego, USA).

CAMK1d = molecular target: T2, CAMK1d (Homo sapiens, UniProt Q8IU85)
T2 construct: purchased Reaction Biology Corp
Procedure: as §1

CAMKK1 = molecular target: T3, CAMKK1 (Homo sapiens, UniProt Q8N5S9)
T3 construct: purchased Reaction Biology Corp
Procedure: as §1

CDK19/cyclin C = molecular target: T4, CDK19/cyclin C (Homo sapiens, UniProt Q9BWU1)
T4 construct: purchased Reaction Biology Corp
Procedure: as §1

CDK3/cyclin E = molecular target: T5, CDK3/cyclin E (Homo sapiens, UniProt Q00526)
T5 construct: purchased Reaction Biology Corp
Procedure: as §1

CDK6/cyclin D1 = molecular target: T6, CDK6/cyclin D1 (Homo sapiens, UniProt Q00534)
T6 construct: purchased Reaction Biology Corp
Procedure: as §1

CK1g3 = molecular target: T7, CK1g3 (Homo sapiens, UniProt Q9Y6M4)
T7 construct: purchased Reaction Biology Corp
Procedure: as §1

CK2a2 = molecular target: T8, CK2a2 (Homo sapiens, UniProt P19784)
T8 construct: purchased Reaction Biology Corp
Procedure: as §1

CLK4 = molecular target: T9, CLK4 (Homo sapiens, UniProt Q9HAZ1)
T9 construct: purchased Reaction Biology Corp
Procedure: as §1

CSK = molecular target: T10, CSK (Homo sapiens, UniProt P41240)
T10 construct: purchased Reaction Biology Corp
Procedure: as §1

DCAMKL1 = molecular target: T11, DCAMKL1 (Homo sapiens, UniProt O15075)
T11 construct: purchased Reaction Biology Corp
Procedure: as §1

DDR1 = molecular target: T12, DDR1 (Homo sapiens, UniProt Q08345)
T12 construct: purchased Reaction Biology Corp
Procedure: as §1

EPHA5 = molecular target: T13, EPHA5 (Homo sapiens, UniProt P54756)
T13 construct: purchased Reaction Biology Corp
Procedure: as §1

ERBB2/HER2 = molecular target: T14, ERBB2/HER2 (Homo sapiens, UniProt P04626)
T14 construct: purchased Reaction Biology Corp
Procedure: as §1

FGFR1 = molecular target: T15, FGFR1 (Homo sapiens, UniProt P11362)
T15 construct: purchased Reaction Biology Corp
Procedure: as §1

FLT4/VEGFR3 = molecular target: T16, FLT4/VEGFR3 (Homo sapiens, UniProt P35916)
T16 construct: purchased Reaction Biology Corp
Procedure: as §1

GRK1 = molecular target: T17, GRK1 (Homo sapiens, UniProt Q15835)
T17 construct: purchased Reaction Biology Corp
Procedure: as §1

GRK4 = molecular target: T18, GRK4 (Homo sapiens, UniProt P32298)
T18 construct: purchased Reaction Biology Corp
Procedure: as §1

IKKa/CHUK = molecular target: T19, IKKa/CHUK (Homo sapiens, UniProt O15111)
T19 construct: purchased Reaction Biology Corp
Procedure: as §1

JAK1 = molecular target: T20, JAK1 (Homo sapiens, UniProt P23458)
T20 construct: purchased Reaction Biology Corp
Procedure: as §1

LATS1 = molecular target: T21, LATS1 (Homo sapiens, UniProt O95835)
T21 construct: purchased Reaction Biology Corp
Procedure: as §1

LCK2/ICK = molecular target: T22, LCK2/ICK (Homo sapiens, UniProt Q9UPZ9)
T22 construct: purchased Reaction Biology Corp
Procedure: as §1

LOK/STK10 = molecular target: T23, LOK/STK10 (Homo sapiens, UniProt O94804)
T23 construct: purchased Reaction Biology Corp
Procedure: as §1

LYN B = molecular target: T24, LYN B (Homo sapiens, UniProt P07948)
T24 construct: purchased Reaction Biology Corp
Procedure: as §1

Lck = molecular target: T25, Lck (Homo sapiens, UniProt P06239)
T25 construct: purchased Reaction Biology Corp
Procedure: as §1

MKK4 = molecular target: T26, MKK4 (Homo sapiens, UniProt P45985)
T26 construct: purchased Reaction Biology Corp
Procedure: as §1

MLCK/MYLK = molecular target: T27, MLCK/MYLK (Homo sapiens, UniProt Q15746)
T27 construct: purchased Reaction Biology Corp
Procedure: as §1

MYO3b = molecular target: T28, MYO3b (Homo sapiens, UniProt Q8WXR4)
T28 construct: purchased Reaction Biology Corp
Procedure: as §1

PAK5 = molecular target: T29, PAK5 (Homo sapiens, UniProt Q9P286)
T29 construct: purchased Reaction Biology Corp
Procedure: as §1

PBK/TOPK = molecular target: T30, PBK/TOPK (Homo sapiens, UniProt Q96KB5)
T30 construct: purchased Reaction Biology Corp
Procedure: as §1

PHKg1 = molecular target: T31, PHKg1 (Homo sapiens, UniProt Q16816)
T31 construct: purchased Reaction Biology Corp
Procedure: as §1

PKAcb = molecular target: T32, PKAcb (Homo sapiens, UniProt P22694)
T32 construct: purchased Reaction Biology Corp
Procedure: as §1

PKAcg = molecular target: T33, PKAcg (Homo sapiens, UniProt P22612)
T33 construct: purchased Reaction Biology Corp
Procedure: as §1

PKCb1 = molecular target: T34, PKCb1 (Homo sapiens, UniProt P05771)
T34 construct: purchased Reaction Biology Corp
Procedure: as §1

PKCb2 = molecular target: T35, PKCb2 (Homo sapiens, UniProt P05771)
T35 construct: purchased Reaction Biology Corp
Procedure: as §1

PKCiota = molecular target: T36, PKCiota (Homo sapiens, UniProt P41743)
T36 construct: purchased Reaction Biology Corp
Procedure: as §1

PLK4/SAK = molecular target: T37, PLK4/SAK (Homo sapiens, UniProt O00444)
T37 construct: purchased Reaction Biology Corp
Procedure: as §1

RSK3 = molecular target: T38, RSK3 (Homo sapiens, UniProt Q15349)
T38 construct: purchased Reaction Biology Corp
Procedure: as §1

SIK1 = molecular target: T39, SIK1 (Homo sapiens, UniProt P57059)
T39 construct: purchased Reaction Biology Corp
Procedure: as §1

SIK2 = molecular target: T40, SIK2 (Homo sapiens, UniProt Q9H0K1)
T40 construct: purchased Reaction Biology Corp
Procedure: as §1

SLK/STK2 = molecular target: T41, SLK/STK2 (Homo sapiens, UniProt Q9H2G2)
T41 construct: purchased Reaction Biology Corp
Procedure: as §1

SRPK1 = molecular target: T42, SRPK1 (Homo sapiens, UniProt Q96SB4)
T42 construct: purchased Reaction Biology Corp
Procedure: as §1

ULK1 = molecular target: T43, ULK1 (Homo sapiens, UniProt O75385)
T43 construct: purchased Reaction Biology Corp
Procedure: as §1

T1 sequence (P15056 whole entry): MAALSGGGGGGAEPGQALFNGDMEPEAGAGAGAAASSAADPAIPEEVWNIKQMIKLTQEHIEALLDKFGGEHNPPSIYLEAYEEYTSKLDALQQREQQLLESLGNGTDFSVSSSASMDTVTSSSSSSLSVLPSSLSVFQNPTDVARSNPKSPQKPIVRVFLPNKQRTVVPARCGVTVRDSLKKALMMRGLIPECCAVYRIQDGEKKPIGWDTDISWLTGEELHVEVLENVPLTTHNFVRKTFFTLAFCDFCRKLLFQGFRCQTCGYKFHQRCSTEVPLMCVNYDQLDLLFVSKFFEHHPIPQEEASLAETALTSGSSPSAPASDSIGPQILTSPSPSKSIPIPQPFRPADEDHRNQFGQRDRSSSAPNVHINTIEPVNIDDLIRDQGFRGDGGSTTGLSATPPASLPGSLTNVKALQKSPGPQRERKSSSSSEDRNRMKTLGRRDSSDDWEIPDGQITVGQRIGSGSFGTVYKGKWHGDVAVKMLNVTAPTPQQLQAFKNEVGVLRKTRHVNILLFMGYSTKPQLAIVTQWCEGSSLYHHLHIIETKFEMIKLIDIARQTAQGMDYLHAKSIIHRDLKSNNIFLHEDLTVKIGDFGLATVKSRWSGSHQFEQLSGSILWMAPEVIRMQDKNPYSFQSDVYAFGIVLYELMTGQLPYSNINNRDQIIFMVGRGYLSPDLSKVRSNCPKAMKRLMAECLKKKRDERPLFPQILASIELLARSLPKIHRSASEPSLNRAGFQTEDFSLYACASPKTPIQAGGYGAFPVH
T12 sequence (Q08345 19-913): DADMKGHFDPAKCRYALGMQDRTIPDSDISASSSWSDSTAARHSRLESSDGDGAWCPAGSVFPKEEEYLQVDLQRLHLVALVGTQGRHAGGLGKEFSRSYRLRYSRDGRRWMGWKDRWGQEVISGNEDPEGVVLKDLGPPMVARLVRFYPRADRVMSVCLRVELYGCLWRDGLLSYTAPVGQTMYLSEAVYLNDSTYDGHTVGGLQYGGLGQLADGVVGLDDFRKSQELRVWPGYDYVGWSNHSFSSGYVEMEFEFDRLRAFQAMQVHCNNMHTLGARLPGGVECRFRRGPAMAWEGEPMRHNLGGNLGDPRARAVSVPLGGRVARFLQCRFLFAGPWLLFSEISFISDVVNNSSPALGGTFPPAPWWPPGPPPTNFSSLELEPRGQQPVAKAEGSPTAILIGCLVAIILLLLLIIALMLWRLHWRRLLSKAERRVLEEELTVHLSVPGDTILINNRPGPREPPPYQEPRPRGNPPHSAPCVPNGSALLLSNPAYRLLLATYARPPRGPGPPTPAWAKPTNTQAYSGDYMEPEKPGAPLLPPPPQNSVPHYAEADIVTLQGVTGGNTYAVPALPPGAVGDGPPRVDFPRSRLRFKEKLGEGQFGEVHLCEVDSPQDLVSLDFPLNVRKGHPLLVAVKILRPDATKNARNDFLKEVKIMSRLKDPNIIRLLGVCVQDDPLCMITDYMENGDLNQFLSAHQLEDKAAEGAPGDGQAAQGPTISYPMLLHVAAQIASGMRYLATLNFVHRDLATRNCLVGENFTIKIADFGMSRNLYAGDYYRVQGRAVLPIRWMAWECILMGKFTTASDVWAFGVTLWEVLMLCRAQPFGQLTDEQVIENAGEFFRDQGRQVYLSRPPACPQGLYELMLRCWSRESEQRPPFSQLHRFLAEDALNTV
T34 sequence (P05771 whole entry): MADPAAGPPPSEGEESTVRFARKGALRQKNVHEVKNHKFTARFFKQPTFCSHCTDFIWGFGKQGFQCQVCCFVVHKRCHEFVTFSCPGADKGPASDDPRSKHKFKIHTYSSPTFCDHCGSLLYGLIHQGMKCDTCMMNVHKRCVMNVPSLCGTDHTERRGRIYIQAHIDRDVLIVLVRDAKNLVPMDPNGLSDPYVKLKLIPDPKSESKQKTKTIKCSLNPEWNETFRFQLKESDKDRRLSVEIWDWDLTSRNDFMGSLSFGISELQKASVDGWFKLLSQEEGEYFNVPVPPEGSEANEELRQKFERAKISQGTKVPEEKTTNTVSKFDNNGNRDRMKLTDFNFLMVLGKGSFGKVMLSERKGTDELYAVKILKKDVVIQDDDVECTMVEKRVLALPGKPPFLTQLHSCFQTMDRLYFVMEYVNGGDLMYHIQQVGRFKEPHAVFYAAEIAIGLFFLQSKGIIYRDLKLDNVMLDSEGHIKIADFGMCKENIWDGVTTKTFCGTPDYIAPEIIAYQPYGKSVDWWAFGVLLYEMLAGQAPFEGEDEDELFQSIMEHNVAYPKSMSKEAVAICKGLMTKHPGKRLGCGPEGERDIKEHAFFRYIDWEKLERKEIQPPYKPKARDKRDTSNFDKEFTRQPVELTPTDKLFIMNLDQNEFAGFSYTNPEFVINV
T18 sequence (P32298 whole entry): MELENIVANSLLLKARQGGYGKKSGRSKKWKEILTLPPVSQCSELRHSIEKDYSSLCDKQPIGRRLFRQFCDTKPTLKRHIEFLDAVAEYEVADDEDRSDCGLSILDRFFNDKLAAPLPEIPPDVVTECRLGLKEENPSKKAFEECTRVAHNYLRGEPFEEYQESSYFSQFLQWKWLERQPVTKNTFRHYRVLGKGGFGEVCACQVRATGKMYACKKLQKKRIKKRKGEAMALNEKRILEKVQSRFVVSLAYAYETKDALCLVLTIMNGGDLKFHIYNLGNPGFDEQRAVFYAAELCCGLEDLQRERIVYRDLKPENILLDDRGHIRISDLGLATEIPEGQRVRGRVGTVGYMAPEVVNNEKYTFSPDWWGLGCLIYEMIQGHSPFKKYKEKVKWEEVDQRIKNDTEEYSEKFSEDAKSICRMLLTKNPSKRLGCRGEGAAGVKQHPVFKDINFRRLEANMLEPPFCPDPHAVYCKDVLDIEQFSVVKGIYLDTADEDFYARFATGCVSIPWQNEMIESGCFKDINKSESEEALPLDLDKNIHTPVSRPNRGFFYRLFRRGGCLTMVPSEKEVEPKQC
T22 sequence (Q9UPZ9 whole entry): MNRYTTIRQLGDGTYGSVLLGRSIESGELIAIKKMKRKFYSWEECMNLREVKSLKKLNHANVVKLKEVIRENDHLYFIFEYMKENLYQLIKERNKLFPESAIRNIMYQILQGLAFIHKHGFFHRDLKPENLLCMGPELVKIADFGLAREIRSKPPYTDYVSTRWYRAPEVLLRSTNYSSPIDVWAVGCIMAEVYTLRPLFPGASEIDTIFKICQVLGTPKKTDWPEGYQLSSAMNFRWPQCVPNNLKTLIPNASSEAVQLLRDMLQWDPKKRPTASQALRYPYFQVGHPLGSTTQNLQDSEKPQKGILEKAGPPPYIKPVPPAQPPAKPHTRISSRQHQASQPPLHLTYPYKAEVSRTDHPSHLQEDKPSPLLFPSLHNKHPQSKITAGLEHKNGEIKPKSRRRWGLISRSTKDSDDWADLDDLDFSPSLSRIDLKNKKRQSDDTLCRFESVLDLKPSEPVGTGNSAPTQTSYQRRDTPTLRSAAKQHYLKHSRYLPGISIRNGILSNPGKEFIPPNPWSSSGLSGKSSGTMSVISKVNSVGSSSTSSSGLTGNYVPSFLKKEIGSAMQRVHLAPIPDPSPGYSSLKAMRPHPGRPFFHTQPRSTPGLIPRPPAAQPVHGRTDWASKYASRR
T37 sequence (O00444 whole entry): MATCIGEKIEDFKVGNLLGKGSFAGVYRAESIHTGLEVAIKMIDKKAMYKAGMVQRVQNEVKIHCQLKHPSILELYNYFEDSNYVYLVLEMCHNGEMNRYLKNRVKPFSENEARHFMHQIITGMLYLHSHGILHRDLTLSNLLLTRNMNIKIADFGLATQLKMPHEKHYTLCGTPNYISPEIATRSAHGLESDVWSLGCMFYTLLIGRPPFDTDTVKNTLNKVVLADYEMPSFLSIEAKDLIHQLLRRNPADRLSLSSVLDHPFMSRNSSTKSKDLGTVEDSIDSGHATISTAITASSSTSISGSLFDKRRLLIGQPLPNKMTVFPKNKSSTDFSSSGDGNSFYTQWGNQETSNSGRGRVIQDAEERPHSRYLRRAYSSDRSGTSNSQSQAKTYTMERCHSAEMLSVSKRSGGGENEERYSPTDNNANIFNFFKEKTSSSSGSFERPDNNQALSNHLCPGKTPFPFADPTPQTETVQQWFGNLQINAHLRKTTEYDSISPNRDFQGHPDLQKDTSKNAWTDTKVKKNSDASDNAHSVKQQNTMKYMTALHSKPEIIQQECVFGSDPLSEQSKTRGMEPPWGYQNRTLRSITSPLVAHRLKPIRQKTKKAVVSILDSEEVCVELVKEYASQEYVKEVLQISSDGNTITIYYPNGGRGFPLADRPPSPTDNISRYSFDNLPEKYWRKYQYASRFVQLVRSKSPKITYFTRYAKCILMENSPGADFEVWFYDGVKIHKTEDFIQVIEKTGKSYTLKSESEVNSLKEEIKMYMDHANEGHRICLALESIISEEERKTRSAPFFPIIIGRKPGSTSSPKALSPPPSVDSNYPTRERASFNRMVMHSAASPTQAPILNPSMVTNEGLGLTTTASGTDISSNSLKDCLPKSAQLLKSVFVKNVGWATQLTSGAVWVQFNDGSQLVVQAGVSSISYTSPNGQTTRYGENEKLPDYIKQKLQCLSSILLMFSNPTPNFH
T10 sequence (P41240 whole entry): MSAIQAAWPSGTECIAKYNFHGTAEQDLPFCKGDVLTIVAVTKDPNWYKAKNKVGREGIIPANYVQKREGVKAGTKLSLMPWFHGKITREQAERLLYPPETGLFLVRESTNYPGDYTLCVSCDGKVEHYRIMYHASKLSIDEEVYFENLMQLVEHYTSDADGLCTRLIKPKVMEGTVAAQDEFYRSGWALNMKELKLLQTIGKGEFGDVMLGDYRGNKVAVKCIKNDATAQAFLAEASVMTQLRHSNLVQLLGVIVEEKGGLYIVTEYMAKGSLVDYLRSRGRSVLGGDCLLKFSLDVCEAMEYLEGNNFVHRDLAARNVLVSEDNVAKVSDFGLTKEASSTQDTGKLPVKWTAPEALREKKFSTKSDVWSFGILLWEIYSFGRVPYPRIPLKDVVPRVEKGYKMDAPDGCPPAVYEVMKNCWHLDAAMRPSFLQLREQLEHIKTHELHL

Compound: Cc1ccc(Nc2ncc3c(n2)N(C)C(=O)N(c2cc(C(=O)N[C@H](C(=O)N4CCC[C@H]4C(=O)NC(C)(C)C(=O)N[C@@H](CC(C)C)C(=O)N(C)C)C(C)C)ccc2C)C3)cn1 [7a, (S)-N-(1-(((S)-1-(dimethylamino)-4-methyl-1-oxopentan-2-yl)amino)-2-methyl-1-oxopropan-2-yl)-1-((4-methyl-3-(1-methyl-7-((6-methylpyridin-3-yl)amino)-2-oxo-1,4-dihydropyrimido[4,5-d]pyrimidin-3(2H)-yl)benzoyl)-L-valyl)pyrrolidine-2-carboxamide] (X1-VP[Aib]L-NMe2)
- inhibition at 1 µM (BRAF): 7%
- inhibition at 1 µM (CAMK1d): 8%
- inhibition at 1 µM (CAMKK1): 0%
- inhibition at 1 µM (CDK19/cyclin C): 0%
- inhibition at 1 µM (CDK3/cyclin E): 0%
- inhibition at 1 µM (CDK6/cyclin D1): 0%
- inhibition at 1 µM (CK1g3): 0%
- inhibition at 1 µM (CK2a2): 3%
- inhibition at 1 µM (CLK4): 0%
- inhibition at 1 µM (CSK): 44%
- inhibition at 1 µM (DCAMKL1): 0%
- inhibition at 1 µM (DDR1): 80%
- inhibition at 1 µM (EPHA5): 23%
- inhibition at 1 µM (ERBB2/HER2): 10%
- inhibition at 1 µM (FGFR1): 37%
- inhibition at 1 µM (FLT4/VEGFR3): 20%
- inhibition at 1 µM (GRK1): 0%
- inhibition at 1 µM (GRK4): 1%
- inhibition at 1 µM (IKKa/CHUK): 6%
- inhibition at 1 µM (JAK1): 9%
- inhibition at 1 µM (LATS1): 4%
- inhibition at 1 µM (LCK2/ICK): 0%
- inhibition at 1 µM (LOK/STK10): 3%
- inhibition at 1 µM (LYN B): 34%
- inhibition at 1 µM (Lck): 94%
- inhibition at 1 µM (MKK4): 2%
- inhibition at 1 µM (MLCK/MYLK): 0%
- inhibition at 1 µM (MYO3b): 0%
- inhibition at 1 µM (PAK5): 9%
- inhibition at 1 µM (PBK/TOPK): 0%
- inhibition at 1 µM (PHKg1): 7%
- inhibition at 1 µM (PKAcb): 3%
- inhibition at 1 µM (PKAcg): 0%
- inhibition at 1 µM (PKCb1): 4%
- inhibition at 1 µM (PKCb2): 0%
- inhibition at 1 µM (PKCiota): 3%
- inhibition at 1 µM (PLK4/SAK): 5%
- inhibition at 1 µM (RSK3): 0%
- inhibition at 1 µM (SIK1): 10%
- inhibition at 1 µM (SIK2): 2%
- inhibition at 1 µM (SLK/STK2): 9%
- inhibition at 1 µM (SRPK1): 5%
- inhibition at 1 µM (ULK1): 0%
